Experimental data reported in patent US20080167375A1, “TREATMENT OF CUTANEOUS NEUROGENIC INFLAMMATION” (Astion Pharma A/S, priority 2006, published 2008).
Where two headings read alike, the source gives them in different places.

Assays:
[1] = tested on: capsaicin-induced neurogenic inflammation (ear oedema); experiment: Capsaicin-induced ear oedema (neurogenic inflammation) model in mice; type: in vivo, NMRI mice; details: for % relative ear oedema (2. app): co-administered with capsaicin 250 μg/ear, 15 min after second capsaicin application; for % inhibition of ear oedema: after second capsaicin application, vs vehicle
Source text: Effect on capsaicin-induced neurogenic inflammation in mice and binding to the TRP vanillioid receptor.
The mechanism of cutaneous neurogenic inflammation is connected with the release of neuropeptides from sensory nerve endings. The neuropeptide substance P is believed to play a major role in inducing an inflammatory response by affecting different inflammatory cells.

[2] = biological target: T1, vanilloid receptors (Rattus norvegicus, UniProt O35433); experiment: In vitro radioligand binding assay for vanilloid receptors (MDS Pharma Services); details: rat vas deferens, field stimulated
T1 construct: The tissue used in this assay was rat vas deferens, field stimulated; tissue MDS Pharma Services; host or cells: rat vas deferens
Source text: Literature reference to this assay is Wardle, K A et al. J PharmPharmacol. 48:285, 1996.

[3] = biological target: T2, Fatty acid amid hydrolase (FAAH) (Rattus norvegicus, UniProt P97612); experiment: FAAH in vitro enzyme assay (MDS Pharma Services); type: biochemical; details: rat brain source; substrate Anandamide+[3H]Anandamide
T2 construct: source is rat brain; tissue MDS Pharma Services; host or cells: rat brain
T2 sequence (P97612 1-579): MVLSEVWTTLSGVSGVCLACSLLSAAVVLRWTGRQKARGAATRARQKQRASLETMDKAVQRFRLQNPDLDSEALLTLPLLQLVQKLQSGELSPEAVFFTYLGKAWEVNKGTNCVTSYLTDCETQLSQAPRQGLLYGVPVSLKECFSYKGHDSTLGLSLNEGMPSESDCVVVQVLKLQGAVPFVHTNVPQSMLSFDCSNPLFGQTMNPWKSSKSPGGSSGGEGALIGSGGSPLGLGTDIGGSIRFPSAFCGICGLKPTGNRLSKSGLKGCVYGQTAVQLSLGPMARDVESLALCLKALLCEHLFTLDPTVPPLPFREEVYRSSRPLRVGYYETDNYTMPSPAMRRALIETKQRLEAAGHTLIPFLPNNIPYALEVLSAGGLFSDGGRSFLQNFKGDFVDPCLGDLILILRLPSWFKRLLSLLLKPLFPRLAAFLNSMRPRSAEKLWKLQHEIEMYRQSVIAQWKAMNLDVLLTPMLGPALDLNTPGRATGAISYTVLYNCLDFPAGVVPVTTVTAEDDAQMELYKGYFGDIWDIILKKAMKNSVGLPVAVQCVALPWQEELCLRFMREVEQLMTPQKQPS
Experimental: The assay is conducted using the following test conditions; source is rat brain, substrate is Anandamide+[3H]Anandamide, the reation is[3H]Anandamide→[3H]Ethanolamine+Arachidonic acid and the quantitation is performed on [3H]Ethanolamine using a test concentration usually of about 10 μM.

[4] = tested on: IL-1β release in LPS-activated human peripheral blood mononuclear cells (PBMC); experiment: LPS-induced IL-1β release from human PBMC; type: cell-based; parameters: IL-1β: unit not given here; details: for IL-1β: LPS-stimulated PBMC
Source text: (§1) The ability of GMCY to inhibit release of pro-inflammatory cytokines (TNF-α and IL-1) in LPS-activated human peripheral blood mononuclear cells (PBMC) has been investigated.

[5] = tested on: TNF-α release in LPS-activated human peripheral blood mononuclear cells (PBMC); experiment: LPS-induced TNF-α release from human PBMC; type: cell-based; details: for TNF-α: LPS-stimulated PBMC
Source text: as §1

[6] = tested on: IL-6 release in LPS-activated human peripheral blood mononuclear cells (PBMC); experiment: LPS-induced IL-6 release from human PBMC; type: cell-based; details: physiologically relevant concentrations
[7] = biological target: T3, human PPARα (Homo sapiens, UniProt Q07869); experiment: PPARα agonism, Gal4-luciferase transactivation assay in HEK 293-T; type: cell-based
T3 construct: host or cells: HEK 293-T
T3 sequence (Q07869 239-466 limits assumed): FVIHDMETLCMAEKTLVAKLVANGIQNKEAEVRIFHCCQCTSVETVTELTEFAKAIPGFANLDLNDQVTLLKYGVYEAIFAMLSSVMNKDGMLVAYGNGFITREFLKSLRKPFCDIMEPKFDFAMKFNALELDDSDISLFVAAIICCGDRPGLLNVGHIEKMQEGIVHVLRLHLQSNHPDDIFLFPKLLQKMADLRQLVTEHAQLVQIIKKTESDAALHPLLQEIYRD
Experimental: Effect of GMCY and glyceryl fatty acid esters of higher acid chain length on PPARα agonism.
Agonism of PPARα can be tested by commercially available assays such as by Indigo Biosciences). The test substance is dissolved in DMSO and serial dilutions in DMSO were prepared. A plasmid was formed by fusing a ligand-binding domain of human PPARα, to a DAN-binding domain of the yest transcription factor Gal4 under the control of the SV40 promoter. This plasmid also encoded the UAS-firefly luciferase reporter under the control of the Gal4 DNA response element. Cell-cultures and transactivation assays were HEK 293-T fibroblast (ATCC Manassas, Va.) which were cultured in high-glucose Dulbecco's Minimal Essential Medium (DMEM) supplemented with 10% fetal bovine serum (FBS, Sigma), 0.2 mg/ml streptomycin and 200 U/ml penicillin (Gibco Grand Island, N.Y.). Cells were transfected with plasmid DNA using Lipofectamine reagent (In Vitrogen, Carlsbad, Calif.) using the manufacturers recommended procedures. Sixteen hours after treatment, the cells were lysed with passive lysis buffer (Promega, Madison, Wis.) and a Tecan GeniousPro (Research Triangle Park, N.C.). The fold induction of normalised luciferase activity was calculated relative to DMSO, DMSO-treated cells.

[8] = biological target: T4, Protein tyrosine kinase enzyme Syk (Homo sapiens, UniProt P43405); experiment: Protein tyrosine kinase Syk inhibition (MDS Pharma, assay no 174200); type: biochemical
T4 construct: MDS Pharma assay no 174200

[9] = tested on: skin; experiment: Skin tolerability of dermatological compositions; details: higher doses
Source text: Therefore, in current interesting embodiments of the invention, the dermatological composition comprises for reasons of safety and convenience a maximal dose of GMCY or an analogue thereof in an amount of 5% of GMCY or an analogue thereof by weight of the dermatological composition, such as in a maximum doses of 4.5%, 4%, 3.5%, 3%, 2.5%, 2%, 1.5%, 1.25 1%, 0.8, 0.6 and 0.5% of GMCY or an analogue thereof by weight of the dermatological composition.

[10] = tested on: acute inflammation; details: Example 111 of WO 2004/000333; cited from earlier work
[11] = biological target: T2, Fatty acid amid hydrolase (FAAH); details: reference compound of the assay; cited from earlier work
[12] = physiologically relevant concentrations

T1 sequence (O35433 whole entry): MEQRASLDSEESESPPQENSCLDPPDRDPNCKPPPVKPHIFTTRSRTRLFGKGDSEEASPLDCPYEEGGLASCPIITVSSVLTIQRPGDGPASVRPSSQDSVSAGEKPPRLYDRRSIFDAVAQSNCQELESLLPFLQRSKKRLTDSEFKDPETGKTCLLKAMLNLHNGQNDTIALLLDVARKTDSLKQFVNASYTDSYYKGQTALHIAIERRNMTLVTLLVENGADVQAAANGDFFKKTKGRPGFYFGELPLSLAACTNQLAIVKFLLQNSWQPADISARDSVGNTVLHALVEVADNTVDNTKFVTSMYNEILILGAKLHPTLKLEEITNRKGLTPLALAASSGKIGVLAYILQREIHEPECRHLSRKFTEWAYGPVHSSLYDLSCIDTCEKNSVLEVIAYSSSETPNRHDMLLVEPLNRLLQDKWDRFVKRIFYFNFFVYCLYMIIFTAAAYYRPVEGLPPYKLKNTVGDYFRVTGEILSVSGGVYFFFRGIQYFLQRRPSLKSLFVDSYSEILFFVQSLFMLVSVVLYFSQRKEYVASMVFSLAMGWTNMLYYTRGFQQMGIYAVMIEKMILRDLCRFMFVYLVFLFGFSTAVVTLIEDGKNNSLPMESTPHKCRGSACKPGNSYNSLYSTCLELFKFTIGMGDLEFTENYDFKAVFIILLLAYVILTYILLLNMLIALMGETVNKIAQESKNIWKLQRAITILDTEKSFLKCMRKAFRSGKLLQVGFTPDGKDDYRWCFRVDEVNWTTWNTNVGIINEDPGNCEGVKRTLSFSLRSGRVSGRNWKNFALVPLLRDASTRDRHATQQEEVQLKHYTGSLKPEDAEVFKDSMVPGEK

## CCCCCCCCCC(=O)OCC(O)CO (centres unmarked) [1-glyceryl monocaprate, reference compound]
[1]; all treated groups (2000, 450, 100 μg/ear)
  inhibitory effect on neurogenic inflammation (ear oedema vs vehicle control): no inhibitory effect

## CCCCCCCC(=O)OCC(O)CO (racemic) [GMCY, 1-glyceryl monocaprylate]
[1]; 100 μg/ear topical
  % relative ear oedema (2. app): 15.8%
[1]; 100 μg/ear
  % inhibition of ear oedema: 32.6%
[1]; 450 μg/ear topical
  % relative ear oedema (2. app): 15.3%
[1]; 450 μg/ear
  % inhibition of ear oedema: 34.4%
[1]; 2000 μg/ear topical
  % relative ear oedema (2. app): 15.0%
[1]; 2000 μg/ear
  % inhibition of ear oedema: 36.0%
[1]; after repeated application of capsaicin, treated groups overall
  reduction of inflammation in comparison to the vehicle control: about 35%
[2]
  binding to the vanilloid receptors: does not bind
[3]
  IC50: 53 µM
[4]; 1 μM
  IL-1β: 459.2
[4]; 10 μM
  IL-1β: 320.9
[4]; 100 μM
  IL-1β: 238.6
[4]; 1000 μM
  IL-1β: 124.5
[4]; 10000 μM
  IL-1β: 8.2
[4]; [12]
  inhibition of LPS induced release of IL-1β: dose dependently inhibit
[5]; 1 μM
  TNF-α: 230.2
[5]; 10 μM
  TNF-α: 105
[5]; 100 μM
  TNF-α: 73.7
[5]; 1000 μM
  TNF-α: 38.5
[5]
  TNF-α: 6.9
[5]; [12]
  inhibition of LPS induced release of TNF-α: dose dependently inhibit
[6]
  inhibition of LPS induced release of IL-6: dose dependently inhibit
[7]
  PPARα agonism: did not act as an agonist
[8]
  IC50: 61 µM
[9]
  skin burning / irritation: causes burning or weak irritation in higher doses
[10]
  effect on acute inflammation: any effect could not be proven statistically

## CCCCCCCC/C=C\CCCCCCCC(=O)C(F)(F)F [Oleyl Trifluromethyl Ketone]
[11]
  IC50: 0.029 µM

## C[C@@H]1C[C@H]2[C@@H]3CCC4=CC(=O)C=C[C@]4(C)[C@@]3(F)[C@@H](O)C[C@]2(C)[C@@]1(O)C(=O)CO [Dexamethasone, reference compound]
[5]; Dexamethasone control, concentration not given
  TNF-α: 87
